What is called viability is a read-out of living cells in per cent, often relative to untreated cells.

Experimental findings from paper PMC11995724, “Antibiotic target discovery by integrated phenotypic and activity-based profiling of electrophilic fragments” (Cell chemical biology, 2025) are described below.

This data set is described as follows: in vitro. Conditions: human, hek293t cells.
For the compound `Cc1ccc(S(=O)(=O)N(C)C)cc1NC(=O)C(C)Cl` (stereo not drawn) [4-I06, 2-chloro-N-[5-(dimethylsulfamoyl)-2-methylphenyl]propanamide], the viability at 48 h, 25 µM was 69.7%.

Regarding `C=CC(=O)N(C)Cc1nc2c(n1C)CCCC2` [2-K22, N-methyl-N-[(1-methyl-4,5,6,7-tetrahydro-1H-1,3-benzodiazol-2-yl)methyl]prop-2-enamide], the viability at 48 h, 25 µM worked out at 87.1%.

As for `C=CC(=O)NCCC(=O)NC1CCSc2ccc(F)cc21` (stereo not drawn) [3-D08, N-{2-[(6-fluoro-3,4-dihydro-2H-1-benzothiopyran-4-yl)carbamoyl]ethyl}prop-2-enamide], the viability at 48 h, 25 µM came out at 70.7%.

Take `Cc1ccccc1NC(=O)C(C#N)=Cc1ccccc1Cl` [8-N05, 3-(2-chlorophenyl)-2-cyano-N-(2-methylphenyl)prop-2-enamide]: the viability at 48 h, 25 µM is 47.9%.

Regarding `O=C(CCl)C1(F)CCCCC1` [10-K19, 2-chloro-1-(1-fluorocyclohexyl)ethan-1-one], the viability at 48 h, 25 µM was 97.5%.

`C=CC(=O)N1CCC(C(=O)N2CCCC2C2OCCO2)CC1` (stereo not drawn) [2-L12, 1-{4-[2-(1,3-dioxolan-2-yl)pyrrolidine-1-carbonyl]piperidin-1-yl}prop-2-en-1-one]: the viability at 48 h, 25 µM worked out at 48.7%.

As for `CC(Cl)C(=O)Nc1ccccc1C#N` (stereo not drawn) [6-A11, 2-chloro-N-(2-cyanophenyl)propanamide], the viability at 48 h, 25 µM was determined as 97.2%.

As for `CC(Cl)C(=O)NC(=O)NC12CC3CC(CC(C3)C1)C2` (stereo not drawn) [6-D10, 1-(adamantan-1-yl)-3-(2-chloropropanoyl)urea], the viability at 48 h, 25 µM was found to be 101%.

As to `CCC1CN(CCn2cccn2)CCN1C(=O)C(C)Cl` (stereo not drawn) [7-F07, 2-chloro-1-{2-ethyl-4-[2-(1H-pyrazol-1-yl)ethyl]piperazin-1-yl}propan-1-one], the viability at 48 h, 25 µM turned out to be 98.7%.

Take `C=CC(=O)NC(Cc1ccccc1)c1ncco1` (stereo not drawn) [1-B07, N-[1-(1,3-oxazol-2-yl)-2-phenylethyl]prop-2-enamide]: the viability at 48 h, 25 µM is 118%.

`N#CC(=Cc1ccc(Oc2cnccn2)cc1)C(=O)NC1CCCC1` [9-F20, 2-cyano-N-cyclopentyl-3-[4-(pyrazin-2-yloxy)phenyl]prop-2-enamide]: the viability at 48 h, 25 µM came out at 95.3%.

`CC(=O)N(Cc1ncc(C(C)C)o1)C1CCN(C(=O)C(C)Cl)C1` (stereo not drawn) [6-J07, N-[1-(2-chloropropanoyl)pyrrolidin-3-yl]-N-{[5-(propan-2-yl)-1,3-oxazol-2-yl]methyl}acetamide]: the viability at 48 h, 25 µM is 103%.

`CC(Cl)C(=O)NCC1(n2ccnn2)CC1` (stereo not drawn) [6-B20, 2-chloro-N-{[1-(1H-1,2,3-triazol-1-yl)cyclopropyl]methyl}propanamide]: the viability at 48 h, 25 µM is 104%.

Take `Cc1cccc(NC(=O)CCl)c1C` [4-D04, 2-chloro-N-(2,3-dimethylphenyl)acetamide]: the viability at 48 h, 25 µM is 1.62%.

With `COC(=O)c1sccc1N1C(=O)C=CC1=O` [10-A07, methyl 3-(2,5-dioxo-2,5-dihydro-1H-pyrrol-1-yl)thiophene-2-carboxylate], the viability at 48 h, 25 µM was found to be 16.6%.

As to `CC(Cl)C(=O)NCCc1ccc(F)cc1` (stereo not drawn) [6-F06, 2-chloro-N-[2-(4-fluorophenyl)ethyl]propanamide], the viability at 48 h, 25 µM was found to be 112%.

Turning to `C=CC(=O)N1CCC(C(=O)N2CCCC(c3cnn(C)c3)C2)CC1` (stereo not drawn) [2-N16, 1-{4-[3-(1-methyl-1H-pyrazol-4-yl)piperidine-1-carbonyl]piperidin-1-yl}prop-2-en-1-one], the viability at 48 h, 25 µM is 99.6%.

With `C=CC(=O)NCc1cccc(-n2cccn2)n1` [1-M14, N-{[6-(1H-pyrazol-1-yl)pyridin-2-yl]methyl}prop-2-enamide], the viability at 48 h, 25 µM was 93.2%.

As for `C=CC(=O)N1CCC(C(=O)N[C@H]2CC[C@@H](S(C)(=O)=O)CC2)CC1` [2-J08, 1-(prop-2-enoyl)-N-[(1s,4s)-4-methanesulfonylcyclohexyl]piperidine-4-carboxamide], the viability at 48 h, 25 µM was found to be 86.3%.

Take `CC(Cl)C(=O)N1CCC(N(C)Cc2cc(=O)[nH]c(N(C)C)n2)C1` (stereo not drawn) [7-E18, 6-({[1-(2-chloropropanoyl)pyrrolidin-3-yl](methyl)amino}methyl)-2-(dimethylamino)-3,4-dihydropyrimidin-4-one]: the viability at 48 h, 25 µM was determined as 72.3%.

With `C=CC(=O)N1CCCCC1Cn1ccnn1` (stereo not drawn) [2-K07, 1-{2-[(1H-1,2,3-triazol-1-yl)methyl]piperidin-1-yl}prop-2-en-1-one], the viability at 48 h, 25 µM stood at 89.3%.

Take `CC(Cl)C(=O)N1Cc2ccccc2N(C)C[C@@H]1C` (stereo partly drawn) [5-F15, 2-chloro-1-[(3S)-1,3-dimethyl-2,3,4,5-tetrahydro-1H-1,4-benzodiazepin-4-yl]propan-1-one]: the viability at 48 h, 25 µM was 108%.

`C=CC(=O)N(CC)CC(=O)N1CCCC1c1cn(C)nc1C` (stereo not drawn) [2-N12, N-{2-[2-(1,3-dimethyl-1H-pyrazol-4-yl)pyrrolidin-1-yl]-2-oxoethyl}-N-ethylprop-2-enamide]: the viability at 48 h, 25 µM was 85.2%.

In the case of `CC(Cl)C(=O)Nc1sc2c(c1C#N)CCCCC2` (stereo not drawn) [5-B20, 2-chloro-N-{3-cyano-4H,5H,6H,7H,8H-cyclohepta[b]thiophen-2-yl}propanamide], the viability at 48 h, 25 µM amounted to 60%.

For `CCCCNC(=O)C(C#N)=Cc1ccc(F)cc1` [9-P13, N-butyl-2-cyano-3-(4-fluorophenyl)prop-2-enamide], the viability at 48 h, 25 µM amounted to 124%.

On to `C=CC(=O)NCc1nc2c(s1)CCCC2` [1-G18, N-[(4,5,6,7-tetrahydro-1,3-benzothiazol-2-yl)methyl]prop-2-enamide], for which the viability at 48 h, 25 µM was 95.8%.

As to `N#CC(=Cc1cccc(F)c1)C(=O)Nc1ccc(SC(F)F)cc1` [9-N17, 2-cyano-N-{4-[(difluoromethyl)sulfanyl]phenyl}-3-(3-fluorophenyl)prop-2-enamide], the viability at 48 h, 25 µM turned out to be 103%.

Turning to `C=CC(=O)NCc1cc(C(F)(F)F)on1` [3-F20, N-{[5-(trifluoromethyl)-1,2-oxazol-3-yl]methyl}prop-2-enamide], the viability at 48 h, 25 µM was found to be 84.8%.

For the compound `Cc1ccc(C=C(C#N)C(=O)Nc2ccc(C(=O)N(C)C)cc2)o1` [9-P14, 4-[2-cyano-3-(5-methylfuran-2-yl)prop-2-enamido]-N,N-dimethylbenzamide], the viability at 48 h, 25 µM came out at 119%.

As for `C=CC(=O)N1CCC(C(=O)N(C)C(C)CC(N)=O)CC1` (stereo not drawn) [2-K20, 3-{N-methyl-1-[1-(prop-2-enoyl)piperidin-4-yl]formamido}butanamide], the viability at 48 h, 25 µM was 88.3%.

For the compound `C=CC(=O)N1CCC(C(=O)N[C@H]2CCO[C@@H]2c2cccnc2)CC1` (racemic) [2-G20, rac-1-(prop-2-enoyl)-N-[(2R,3S)-2-(pyridin-3-yl)oxolan-3-yl]piperidine-4-carboxamide], the viability at 48 h, 25 µM was 92.2%.

Consider `Cc1ccccc1NC(=O)C(C#N)=Cc1c(Cl)nc2ccccn12` [9-I22, 3-{2-chloroimidazo[1,2-a]pyridin-3-yl}-2-cyano-N-(2-methylphenyl)prop-2-enamide], for which the viability at 48 h, 25 µM is 134%.

On to `N#CC(=Cc1ccsc1)C(=O)Nc1ccccc1Cl` [9-O05, N-(2-chlorophenyl)-2-cyano-3-(thiophen-3-yl)prop-2-enamide], for which the viability at 48 h, 25 µM is 150%.

Regarding `N#CC(=Cc1cccc(Cl)c1Cl)C(=O)NCCc1ccccc1` [8-J06, 2-cyano-3-(2,3-dichlorophenyl)-N-(2-phenylethyl)prop-2-enamide], the viability at 48 h, 25 µM turned out to be 10.1%.

Consider `CCc1cccc2c(C(=O)CCl)c[nH]c12` [10-C12, 2-chloro-1-(7-ethyl-1H-indol-3-yl)ethan-1-one], for which the viability at 48 h, 25 µM is 0.148%.

With `O=C(CCl)Nc1cc(S(=O)(=O)N2CCCCC2)ccc1Cl` [4-F09, 2-chloro-N-[2-chloro-5-(piperidine-1-sulfonyl)phenyl]acetamide], the viability at 48 h, 25 µM turned out to be 0.505%.

On to `C=CC(=O)NCc1ccccc1S(=O)(=O)NC` [1-N03, N-{[2-(methylsulfamoyl)phenyl]methyl}prop-2-enamide], for which the viability at 48 h, 25 µM amounted to 92.3%.

Consider `C=CC(=O)N1CCC(C(=O)NCc2ccoc2C)CC1` [1-E14, N-[(2-methylfuran-3-yl)methyl]-1-(prop-2-enoyl)piperidine-4-carboxamide], for which the viability at 48 h, 25 µM was found to be 85.4%.

Consider `Cc1cc2ncn(CC(NC(=O)C(C)Cl)C3CC3)c2cc1C` (stereo not drawn) [7-J17, 2-chloro-N-[1-cyclopropyl-2-(5,6-dimethyl-1H-1,3-benzodiazol-1-yl)ethyl]propanamide], for which the viability at 48 h, 25 µM is 84.7%.

With `COC1CCN(c2ccc(F)cc2CN(C)C(=O)C(C)Cl)CC1` (stereo not drawn) [7-I11, 2-chloro-N-{[5-fluoro-2-(4-methoxypiperidin-1-yl)phenyl]methyl}-N-methylpropanamide], the viability at 48 h, 25 µM was determined as 94.9%.

Turning to `C=CC(=O)Nc1ccc(C(N)=O)nc1OC` [1-E18, 6-methoxy-5-(prop-2-enamido)pyridine-2-carboxamide], the viability at 48 h, 25 µM was found to be 69.6%.

`C=CC(=O)NCc1ccc(C(=O)N2CCOC3(CCCC3)C2)cc1` [3-B05, N-[(4-{6-oxa-9-azaspiro[4.5]decane-9-carbonyl}phenyl)methyl]prop-2-enamide]: the viability at 48 h, 25 µM was 69.9%.

Consider `CC(C1CC1)N(C(=O)CCl)C1CC1` (stereo not drawn) [5-F12, 2-chloro-N-cyclopropyl-N-(1-cyclopropylethyl)acetamide], for which the viability at 48 h, 25 µM worked out at 1.06%.

Consider `CC(Cl)C(=O)NC(C)c1ccn(C)n1` (stereo not drawn) [6-B16, 2-chloro-N-[1-(1-methyl-1H-pyrazol-3-yl)ethyl]propanamide], for which the viability at 48 h, 25 µM came to 103%.

As for `CC(C)Cc1nnc(NC(=O)CCl)s1` [4-A17, 2-chloro-N-[5-(2-methylpropyl)-1,3,4-thiadiazol-2-yl]acetamide], the viability at 48 h, 25 µM turned out to be 0.521%.

In the case of `O=C(CCl)Nc1ccc(S(=O)(=O)C(F)F)cc1` [4-N16, 2-chloro-N-(4-difluoromethanesulfonylphenyl)acetamide], the viability at 48 h, 25 µM worked out at 0.598%.

For the compound `N#CC(=Cc1csnn1)C(=O)Nc1ccc(Oc2ccccc2)cc1` [8-M12, 2-cyano-N-(4-phenoxyphenyl)-3-(1,2,3-thiadiazol-4-yl)prop-2-enamide], the viability at 48 h, 25 µM is 43%.

As to `Cc1ccc(NC(=O)CCl)cc1[N+](=O)[O-]` [4-M13, 2-chloro-N-(4-methyl-3-nitrophenyl)acetamide], the viability at 48 h, 25 µM stood at 59.2%.
